Source: US11213508B2, “Compositions comprising urolithins and uses thereof for the stimulation of insulin secretion” (Centre National de la Recherche Scientifique (CNRS), priority 2013, dated 2022)
Entries after “also recorded” stand apart in the source; their conditions may differ.

Key:
Assay type in all cases: cell-based
[1] = tested on: INS-1 insulin-secreting β-cells; test: Insulin secretion in INS-1 cells in the presence of oxidative stress (H2O2); conditions: 8.3 mmol·L^−1 glucose + H2O2; for concentration active in preventing insulin secretion impairment induced by H2O2: lowest active concentration
Description: (§1) Before the treatment, RPMI medium was removed and the cells were washed twice with HEPES-balanced Krebs-Ringer bicarbonate buffer (KRB) containing (in mmol·L^−1): 123 NaCl, 5.4 KCl, 1.3 KH2PO4, 2.7 MgSO4, 2.9 CaCl2, 5 NaHCO3 and 20 HEPES, pH 7.5, with 2 g·L^−1 bovine serum albumin (KRB/BSA). Cells were incubated for 1 h (5% CO2, 37° C.) in KRB medium containing 8.3 mmol·L^−1 glucose (glucose-stimulated secretion) in the presence or absence of the compounds tested. At the end of the 1 h incubation period, the medium was sampled and stored at −20° C. until the insulin assay. Insulin concentration in cell supernatants was determined using the homogeneous time resolved fluorescence technology (HTRF), according to the manufacturer's instructions (HTRF insulin assay kit, Cisbio International, Bagnols-sur-Ceze, France). Briefly, two anti-insulin antibodies were used; one labelled with Eu^3+-Cryptate and one labelled with XL665 recognizing distinct epitopes. When these two fluorophores bind to insulin molecules, the two antibodies come into close proximity, allowing fluorescence resonance energy transfer (FRET) to occur between the Eu^3+-Cryptate and the XL665. This FRET increases proportionally with the insulin concentrations. All the experiments were performed at least in quadruplicate.
(§2) For protection experiments, INS-1 cells were pre-incubated with the indicated concentrations of urolithins for one hour (5% CO2, 37° C.) in RPMI medium. After two washes in HEPES-balanced Krebs-Ringer bicarbonate buffer (123 mmol·L^−1 NaCl, 5.4 mmol·L^−1 KCl, 1.3 mmol·L^−1 KH2PO4, 2.7 mmol·L^−1 MgSO4, 2.9 mmol·L^−1 CaCl2, 5 mmol·L^−1 NaHCO3 and 20 mmol·L^−1 HEPES, pH 7.5) containing 2 g·L^−1 bovine serum albumin (KRB/BSA), INS-1 cells were incubated for one hour (5% CO2, 37° C.) in KRB/BSA containing urolithins at the indicated concentrations in the presence of 1.4 mmol·L^−1 glucose (basal condition) or 8.3 mmol·L^−1 glucose (stimulant condition). When used, H2O2 (50 gmol·L^−1) was added at the beginning of the one-hour incubation period. Control experiments were performed in the basal condition, in the absence of urolithins during the pre-incubation and incubation periods.
Insulin secretion was determined as described above by measuring insulin accumulation after a one-hour incubation period.

[2] = tested on: INS-1 insulin-secreting β-cells; test: INS-1 cell viability (MTT) in the presence of oxidative stress (H2O2); conditions: 20 μmol·L^−1 urolithin; 8.3 mmol·L^−1 glucose + H2O2
Description: as §2
Cell viability was determined using the 3-(4,5-Dimethylthiazol-2-yl)-2,5-diphenyltetrazolium bromide (MTT) assay. At the end of the one-hour incubation period, cells were washed with KRB/BSA and KRB/BSA containing 5 mg/ml MTT was added to each well. Plates were then incubated for 3 h in the dark in a humidified atmosphere (5% CO2, 37° C.). Cells were washed with phosphate buffered saline (PBS) and precipitates were dissolved in 50 μl dimethyl sulfoxide (DMSO). Absorbance of the reduced intracellular formazan product was read at 492 nm on a microtiter plate reader (Tecan, Lyon, France). Experiments were performed in quadruplicate.

[3] = tested on: INS-1 insulin-secreting β-cells; test: Exendin + glucose-stimulated insulin secretion in INS-1 cells; conditions: 8.3 mmol·L^−1 glucose + 0.001 μmol·L^−1 exendin; for maximal response, stimulation as compared to exendin alone: 20
Description: The insulin-secreting cell line INS-1 (a gift from Professor C. B. Wollheim) was cultured in RPMI-1640, supplemented with 10% fetal calf serum (FCS), 100 U·mL^−1 penicillin, 100 μg·mL^−1 streptomycin, 2 mmol·L^−1 L-glutamine, 10 mmol·L^−1 HEPES, 1 mmol·L^−1 sodium pyruvate, and […] 2-mercaptoethanol, as previously described by Youl et al. (2010). Cells were seeded in 24-well plates (4×10^5 cells per well) and were used for experiments after 5 days of culture.
as §1
Material and methods were the same as described in example 1. For the determination of insulin secretion, cells were incubated for 1 h (5% CO2, 37° C.) in KRB medium containing 8.3 mmol·L^−1 glucose (glucose-stimulated condition) and exendin (0.001 μmol·L^−1) in the presence or absence of the compounds tested. Data were expressed as percent of exendin (0.001 μmol·L^−1)+glucose (8.3 mmol·L^−1)-stimulated insulin secretion (“control 100%”) (FIGS. 4A-D).

Row | Structure (SMILES) | concentration active in preventing insulin secretion impairment induced by H2O2 [1] [µM] | prevention of viability impairment induced by H2O2 (MTT) [2] | raise of insulin secretion in the presence of exendin and glucose [3] | insulin secretion stimulation as compared to control conditions ([1]; 20 μmol·L^−1) [%] | insulin secretion stimulation as compared to control conditions [1] [%] | maximal response, stimulation as compared to exendin alone [3]
1 | O=c1oc2cc(O)ccc2c2ccc(O)cc12 [Urolithin A, urolithin A] | 20 | no effect | did not induce a significant raise of insulin secretion; also recorded: did not amplify exendin-stimulated insulin secretion | – | – | –
2 | O=c1oc2cc(O)ccc2c2ccccc12 [Urolithin B, urolithin B] | 5 | partially active | did not induce a significant raise of insulin secretion; also recorded: did not amplify exendin-stimulated insulin secretion | 200 | 150 | –
3 | O=c1oc2cc(O)ccc2c2cc(O)c(O)cc12 [Urolithin C, urolithin C] | 5 | totally prevent viability impairment | induced a significant concentration-dependent stimulation of insulin secretion | 200 | – | about 185%
4 | O=c1oc2c(O)c(O)ccc2c2cc(O)c(O)cc12 [Urolithin D, urolithin D] | 5 | totally prevent viability impairment | induced a significant concentration-dependent stimulation of insulin secretion | – | – | 140%
